Assay results from US7645802B2 (Biovail Laboratories International SRL., priority 2005, dated 2010).
Counter-ions that a name gives are not always drawn. Marks after values point to notes of the source that are not given here.

Tests used:
[1] = stability of polymorphic forms I, II, III by PXRD under ICH conditions; format: physicochemical; conditions: hydrobromide
Protocol: It is well known that organic molecules can crystallize into solid forms. Moreover the same organic compound may assume different crystalline arrangements in solid form, depending on the conditions under which the crystal product is formed. This phenomenon is commonly known as polymorphism. A study was undertaken to explore the polymorphic forms of bupropion hydrobromide. The crystal forms of the products obtained in this study were determined by powder X-ray diffraction (PXRD). A RIGAKU miniflex instrument (Radiation Cu Koc, generator 30 KV, filter Ni) was used to obtain the PXRD data.
The three polymorphic forms were subjected to stability testing. Samples of the polymorphic forms were subjected to ICH conditions (40° C., 75% R.H.) and PXRD data was obtained at 3 months and 6 months. […] Samples of the polymorphic forms II and III were tested after 1 month under the same accelerated stability conditions.
Samples of bupropion HBr form I were subjected to the conditions for the accelerated stability study as described in Example 10 and the shelf life stability study as described in Example 11.
10 g of bupropion HBr form I were dissolved in a mixture of 170 ml of acetone and 7 ml of water. The mixture was brought to reflux with dissolution of the solid. The solution was then cooled to room temperature. After one night the precipitate formed was filtered and dried at 40° C. under vacuum (30 mmHg) for 12 hours. 2.4 g of bupropion HBr form II were obtained. […] The crystalline form was checked after maintaining the product under these conditions for 1 month.
The mixture was brought to reflux obtaining complete dissolution of the solid. The solution was then cooled to room temperature without stirring and left in these conditions for 18 hours. The resulting crystalline solid was then filtered and dried under vacuum (30 mmHg) at 50° C. for 4 hours. 11.2 g of bupropion HBr form III were obtained. A sample of the product was prepared for stability testing by sealing the product in polyethylene bags, which in turn were placed in aluminium bags containing silica and sealed, and placed in the stability chamber in ICH conditions (40° C./75% R.H.). The crystalline form was checked after maintaining the product in these conditions for 1 month.

[2] = tested on: chemically-induced seizures (induced by pentylenetetrazole) in mice; conditions: cited from earlier work
[3] = forced degradation stability study of bupropion salts in vials, 40 degrees C./75% RH, HPLC assay and impurities
[4] = moisture content by KF and pH (aq. 0.5%) of bupropion salts; format: physicochemical
Protocol: The eight salts were first evaluated by HPLC, KF, pH and DSC for purity, water content, aqueous pH and possible polymorphs.
(§1) The salts were analyzed by DSC (at 10° C./min from 30° C. up to 400° C.) and the pH (aq. 0.5%), and the moisture content by KF were also measured. The TGA was performed on the HCl, maleate, tosylate and HBr salts.

TGA of bupropion salts = format: physicochemical; conditions: for residue (TGA): at 400° C.; for weight lost (TGA): from room temperature to 100° C.
Protocol: 2-5 mg of each salt was placed in an aluminium pan and covered with its lid. DSC was run for each sample at the rate of 10 degrees C./min (for HBr salt, different rates were used to investigate for polymorphs) from 30 degrees C. to 400 degrees C. TGA was also used for each of the HBr, HCl, maleate and tosylate salts.
as §1

[5] = Moisture content and pH of aqueous solutions of bupropion salts; format: physicochemical
[6] = ICH conditions 40° C./75% R.H., 1 month
[7] = after re-crystallization in acetonitrile/hexane or acetonitrile/EtOAc
[8] = After re crystallization (R&D), tested after 1 day

With `CC(NC(C)(C)C)C(=O)c1cccc(Cl)c1` (centres unmarked) [bupropion HBr form III, bupropion hydrobromide] the “PXRD profile after storage (polymorph stability)” value (“PXRD profile after storage” below) [1, 6] was “not stable in this form under these conditions” and the “PXRD profile after storage” value ([1]; ICH conditions 40° C./75% R.H., 1 month, listed as form III) was “conversion to form II”.
For `[Br-].[Na+]` [sodium bromide], the “ED50 / therapeutic dose level against pentylenetetrazole-induced seizures” value [2] is listed as 910 mg/kg.
In the case of Bupropion Fumarate, the “In IPA/EtOH, 3-CBZ: order of impurity content” value [3] is reported as “maleate > HBr > HCl > Fumarate”, the “In IPA/EtOH, 852U77: order of impurity content” value (“In IPA/EtOH, 852U77: order” for short) [3] is reported as “fumarate > HBr ≈HCl ≈maleate ≈tosylate” and the “In IPA/EtOH, Total imp.: order of impurity content” value (shortened to “In IPA/EtOH, Total imp.: order”) [3] is reported as “fumarate > maleate > HBr > HCl > tosylate”. The “In water, 3-CBZ: order of impurity content” value [3] was “HCl > HBr≈maleate≈fumarate”, the “In water, 852U77: order of impurity content” value [3] was “fumarate > HBr > maleate > HCl” and the “In water, Total imp.: order of impurity content” value (“In water, Total imp.: order” below) [3] was “fumarate > HBr > HCl > tosylate > maleate”. For the same molecule, the “moisture content KF” value ([4]; salt as received) was 0.09% and the “pH of the aqueous solution of 0.5%” value ([4]; salt as received) was 3.84.
With `CC(NC(C)(C)C)C(=O)c1cccc(Cl)c1` (centres unmarked) [bupropion HBr form I, bupropion hydrobromide] the “PXRD profile after storage” value ([1]; 40° C., 75% R.H. (b1144 also 25° C./60% RH), 3 months and 6 months) was “gave the same results” and the “PXRD profile after storage” value ([1]; 40° C., 75% R.H. (b1144 also 25° C./60% RH), 3 months and 6 months, listed as polymorphic form I) was “same PXRD profile”.
In the case of Bupropion tosylate, the “residue (TGA)” value (TGA of bupropion salts) is reported as 10.3%, the “weight lost (TGA)” value (TGA of bupropion salts) is reported as 1.3% and the “In IPA/EtOH, 852U77: order” value [3] is reported as “fumarate > HBr ≈HCl ≈maleate ≈tosylate”. The “In IPA/EtOH, Total imp.: order” value [3] was “fumarate > maleate > HBr > HCl > tosylate”, the “In water, Total imp.: order” value [3] was “fumarate > HBr > HCl > tosylate > maleate” and the “moisture content KF” value [4, 7] was 0.23%. The pH [4, 7] was 5.88, the “moisture content KF” value ([4]; re-crystallized sample retested after two months) was 0.18% and the “moisture content KF” value ([4]; salt as received) was 1.71%. For the same molecule, the “pH of the aqueous solution of 0.5%” value ([4]; salt as received) was 5.56.
For `Br.CC(NC(C)(C)C)C(=O)c1cccc(Cl)c1` (centres unmarked) [Bup-HBr], the “moisture content KF” value ([5]; Original (Initial APIs)) was 0.00%.
For `CC(NC(C)(C)C)C(=O)c1cccc(Cl)c1.O=C(O)/C=C\C(=O)O` (centres unmarked) [Bup-Maleate], the “moisture content KF” value ([5]; Original (Initial APIs)) was 0.10% and the “pH (aq. 0.5%)” value ([5]; Original (Initial APIs)) was 4.29.
With `CC(NC(C)(C)C)C(=O)c1cccc(Cl)c1` (centres unmarked) [bupropion HBr form II, bupropion hydrobromide] the “PXRD profile after storage” value [1, 6] was “still in form II” and the “PXRD profile after storage” value ([1]; ICH conditions 40° C./75% R.H., 1 month, listed as Polymorphic form II) was “no change in the PXRD profile”.
For `CC(NC(C)(C)C)C(=O)c1cccc(Cl)c1.CC(NC(C)(C)C)C(=O)c1cccc(Cl)c1.O=C(O)C(O)C(O)C(=O)O` (centres unmarked) [Bup-Tartrate neutral], the “moisture content KF” value ([5]; Original (Initial APIs)) was 0.14% and the “pH (aq. 0.5%)” value ([5]; Original (Initial APIs)) was 3.62.
For `Br` [bromide], the “ED50 / therapeutic dose level against pentylenetetrazole-induced seizures” value [2] is listed as 910 mg/kg.
With Bupropion maleate the “thermally stable to at least (TGA)” value (TGA of bupropion salts) was “at least 150 °C”, the “residue (TGA)” value (TGA of bupropion salts) was “minimal residues” and the “weight lost (TGA)” value (TGA of bupropion salts) was 1.3%. For the same molecule, the “In IPA/EtOH, 3-CBZ: order of impurity content” value [3] was “maleate > HBr > HCl > Fumarate”, the “In IPA/EtOH, 852U77: order” value [3] was “fumarate > HBr ≈HCl ≈maleate ≈tosylate” and the “In IPA/EtOH, Total imp.: order” value [3] was “fumarate > maleate > HBr > HCl > tosylate”. The “In water, 3-CBZ: order of impurity content” value [3] was “HCl > HBr≈maleate≈fumarate”, the “In water, 852U77: order of impurity content” value [3] was “fumarate > HBr > maleate > HCl” and the “In water, Total imp.: order” value [3] was “fumarate > HBr > HCl > tosylate > maleate”. For the same molecule, the “moisture content KF” value ([4]; salt as received) was 0.10% and the “pH of the aqueous solution of 0.5%” value ([4]; salt as received) was 4.29.
With `CC(NC(C)(C)C)C(=O)c1cccc(Cl)c1.Cc1ccc(S(=O)(=O)O)cc1` (centres unmarked) [Bup-Tosylate] the “moisture content KF” value ([5]; After re crystallization (R&D), tested after 2 Months) was 0.18%, the “moisture content KF” value [5, 8] was 023% and the “pH (aq. 0.5%)” value [5, 8] was 5.88. The “moisture content KF” value ([5]; Original (Initial APIs)) was 1.71* % and the “pH (aq. 0.5%)” value ([5]; Original (Initial APIs)) was 5.56.
